This is an account of results in article PMC5715595 (British Journal of Pharmacology, 2017).

Where two headings read alike, the source gives them in different places. Some results are limits rather than exact numbers.

The target of data set [1] is T1, KV4.3 (Homo sapiens, UniProt Q9UK17).
T1 construct: expressed in transfected cells
T1 sequence (Q9UK17 1-655): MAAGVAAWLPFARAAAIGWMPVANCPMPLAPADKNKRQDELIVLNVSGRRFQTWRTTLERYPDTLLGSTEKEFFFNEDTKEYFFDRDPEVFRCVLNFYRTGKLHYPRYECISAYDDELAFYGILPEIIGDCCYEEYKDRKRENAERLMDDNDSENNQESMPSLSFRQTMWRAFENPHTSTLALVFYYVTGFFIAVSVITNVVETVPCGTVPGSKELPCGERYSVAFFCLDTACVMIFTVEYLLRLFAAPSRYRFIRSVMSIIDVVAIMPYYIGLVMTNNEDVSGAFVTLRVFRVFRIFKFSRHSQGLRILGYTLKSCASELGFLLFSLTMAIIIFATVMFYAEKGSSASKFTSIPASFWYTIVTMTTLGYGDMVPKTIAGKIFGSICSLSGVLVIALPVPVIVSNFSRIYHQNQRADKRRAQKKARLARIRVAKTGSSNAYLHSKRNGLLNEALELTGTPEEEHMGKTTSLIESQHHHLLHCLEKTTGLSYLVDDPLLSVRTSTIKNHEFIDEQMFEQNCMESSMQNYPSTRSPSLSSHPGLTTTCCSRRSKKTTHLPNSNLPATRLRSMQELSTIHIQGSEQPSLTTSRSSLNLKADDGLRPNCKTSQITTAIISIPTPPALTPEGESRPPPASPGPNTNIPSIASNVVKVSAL
Nature of the data set: Whole-cell patch clamp on KV4.3 (Ito). It is filed as cell-based. The protocol:
(§1) and CiPA Initiative Studies
(§2) =============================================================
(§3) In vitro studies on other ion channels […]
(§4) through NaV1.5, KV4.3, KV7.1/mink, Kir2.1, KV1.5, CaV1.2 and CaV3.2 channels.
(§5) 35-mm dish culture in the conditions mentioned in standard cell culture conditions. Experiments were performed with a cell density enabling isolated cells for patch clamping. Cells were continuously superfused with extracellular medium (1-2 mL∙minute-1) at room temperature.
(§6) D-glucose 10, HEPES 10 and the final pH adjusted to 7.4±0.02 with NaOH for recording NaV1.5, KV4.3, KV7.1/mink, Kir2.1, KV1.5 and CaV3.2 currents. It was (in mM): NaCl 110, KCl 4, BaCl2 20, MgCl2 1, D-glucose 20, HEPES 10 and the final pH adjusted to 7.4 ± 0.02 with NaOH for recording the CaV1.2 current. Compositions of the intracellular solution to fill the pipette are […]
(§7) Composition of intracellular solutions used to fill pipette to record currents through NaV1.5, KV4.3, KV7.1/mink, Kir2.1, KV1.5, CaV1.2 and CaV3.2 channels
(§8) Solution to fill the pipette (mM)
(§9) Creatine-phospho kinase 50 U∙mL-1
(§10) After formation of a Gigaohm seal between the patch electrodes and individual cells (pipette resistance range: 2.0 MΩ - 7.0 MΩ; seal resistance range: > 1 GΩ) the cell membrane across the pipette tip was ruptured to assure electrical access to the cell interior (whole-cell patch-configuration). In case the quality of the seal was poor, the process of seal formation was repeated with a different cell and a new pipette. As soon as a stable seal was established outward tail currents were measured upon pulses described in the Table S2. If current density was judged to be too low for measurement, another cell was recorded. […]
(§11) voltage stimulation protocol indicated in the next table continuously run until the steady-state level of block was reached.
(§12) Stimulation conditions used to record currents through NaV1.5, KV4.3, KV7.1/mink, Kir2.1, KV1.5, CaV1.2 and CaV3.2 channels
(§13) Ion channel Holding potential Pulse / duration Frequency Reference compound […]
(§14) (resting / fast / slow sweeps at one (10 mM) inactivated concentration)

For data set [2], the target named is T2, Kir2.1 (Homo sapiens, UniProt P63252).
T2 construct: expressed in transfected cells
T2 sequence (P63252 1-427): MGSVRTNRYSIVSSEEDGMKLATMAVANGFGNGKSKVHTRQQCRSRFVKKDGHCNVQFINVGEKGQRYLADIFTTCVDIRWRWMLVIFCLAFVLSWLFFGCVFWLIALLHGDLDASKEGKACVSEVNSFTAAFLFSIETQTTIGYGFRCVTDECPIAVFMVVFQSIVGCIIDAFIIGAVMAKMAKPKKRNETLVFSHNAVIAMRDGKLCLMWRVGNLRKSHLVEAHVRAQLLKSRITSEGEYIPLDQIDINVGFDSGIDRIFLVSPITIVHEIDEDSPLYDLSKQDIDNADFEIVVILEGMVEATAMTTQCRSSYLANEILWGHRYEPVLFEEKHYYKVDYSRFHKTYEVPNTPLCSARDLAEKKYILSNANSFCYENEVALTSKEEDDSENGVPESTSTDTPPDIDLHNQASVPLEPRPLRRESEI
Briefly: Whole-cell patch clamp on Kir2.1 (IK1). It is filed as cell-based. The protocol: as §1, §2, §3, §4, §5, §6, §7, §8, §9, §10, §11, §12, §13, §14
Background: In patch-clamp work, channel activity is measured electrically.

Data set [3] deals with rabbit Purkinje fibres. Nature of the data set: Dofetilide-induced early after-depolarizations and triggered activity in rabbit Purkinje fibres. Format: cell-based. To be noted: for APD90: 0.25 Hz. The protocol:
Following a lethal dose of pentobarbital, the hearts of male New Zealand rabbits were immediately excised and immersed in a modified Tyrode solution maintained at room temperature and previously saturated with O2/CO2 (95%/5%). A piece of ventricle containing free running Purkinje fibres was fixed to the silastic bottom of an organ bath perfused with the same solution maintained at 37°C for 30 min. The preparation was then superfused with the modified Tyrode solution and stimulated for 30 min at 2 Hz and then at 1 Hz (2 ms stimulus at twice threshold). […] After a stabilization period of at least 1 h, action potentials typical for Purkinje fibres were recorded. Action potential reproducibility and stability were confirmed during a further 20 min stabilization period. […] Each was applied for 20 min to enable steady state to be reached. In addition, the emergence of early after‐depolarizations (EADs), favoured by calcium loading during the late phase 2 of the prolonged action potential, is recognized as a better marker of pro‐arrhythmic potential than APD prolongation alone.

Data set [4] relates to methoxamine‐sensitized rabbits. Briefly: in vivo. Details: species or system rabbit. The following applies: pitolisant alone, 50 and 150 μg·kg^−1·min^−1 over 1 h. The protocol:
All the other experimental groups were 100% female.
The anaesthetized methoxamine‐sensitized rabbit model of TdP is frequently used to study torsadogenic potential of drugs (Carlsson et al., 1990). Briefly, female animals were pre‐sensitized with i.v. infusion of methoxamine, an α1‐adrenoceptor agonist, delivered at 15 μg·kg^−1·min^−1 (6 mL·h^−1) over 70 min.

For data set [5] the following is noted: in house data.
For data set [6] the following is noted: human, 40 mg daily dosing; ref Shah et al., 2016; cited from earlier work.
Where [7] appears, read: 10 μM pitolisant, dofetilide 0.1 μM.

In the case of `Cl.Clc1ccc(CCCOCCCN2CCCCC2)cc1` [pitolisant, 1‐{3‐[3‐(4‐chlorophenyl)propoxy]propyl}piperidine, hydrochloride], the 50% inhibitory concentration (IC50) is 11.4 µM in data set [1] (KV4.3 Ito, Hill curve fit with Hill coefficient of one, read-out: Fitted IC50); about 10 µM in data set [1] (Pitolisant IC50, KV4.3, Ito); 16.5 µM in data set [2] (Kir2.1 IK1, Hill curve fit with Hill coefficient of one, read-out: Fitted IC50); at least 10 µM in data set [2] (Pitolisant IC50, Kir2.1, IK1). For the same compound, in data set [3] (1 μM pitolisant, dofetilide 0.1 μM), the “effect on dofetilide-induced EADs” value is recorded as “no effect (in four out of four experiments)”. For the same compound, the “inhibition of dofetilide-induced EADs (experiments)” value in data set [3] (3 μM pitolisant, dofetilide 0.1 μM) is “two out of three”. In data set [3] (setting [7]), the “suppression of dofetilide-induced EADs (experiments)” value was “all seven”. In addition, the “suppression of dofetilide-induced spontaneous triggered activity (experiments)” value in data set [3] (setting [7]) is “one out of one”. Further, the APD90 in data set [3] (dofetilide 0.1 μM for 1 h10 and pitolisant 10 μM for 15 min) was 275 ms; in data set [3] (dofetilide 0.1 μM for 55 min and pitolisant 1 μM for 20 min), 598 ms. The “effect on QTc interval” value in data set [4] was “devoid of any effect on QTc interval”. In data set [4], the pro-arrhythmic effect entry is recorded as “lacked any pro‐arrhythmic effect”. For the same compound, the protein-binding in data set [5] worked out at 96%. Also, the “highest clinically relevant exposure” value in data set [6] was 72 ng/mL.

A word on the IC50: it is the midpoint of a concentration-inhibition curve.
